Columns and labels:
[1] = test system: HS68 cells (human fibroblast, Rb-positive); assay: Cellular wash-out experiment, HS68 cells; type: cell-based; settings: in vitro wash-out experiment
Procedure: […]. On day 3, one set of treated cell samples were harvested in triplicate (0 Hour sample). Remaining cells were washed two times in PBS-CMF and returned to culture media lacking test compound. Sets of samples were harvested in triplicate at 24, 40, and 48 hours.
(§1) Upon harvesting cells, samples were stained with propidium iodide staining solution and samples run on Dako Cyan Flow Cytometer. The fraction of cells in G0-G1 DNA cell cycle versus the fraction in S-phase DNA cell cycle was determined using FlowJo 7.2 0.2 analysis.

[2] = test system: myeloid progenitor cells (LKS-); settings: single oral dose 150 mg/kg, mice; Roberts et al.; cited from earlier work
[3] = PD0332991 pharmacokinetics and HSPC arrest in humans; type: in vivo; settings: single administration
Procedure: When calculated half-life was longer than the duration of the experiment, the half-life was expressed as >the longest incubation time. The calculated half-life is also listed in parentheses. […] The timely resumption of cellular proliferation is necessary for tissue repair, and therefore an overly long period of arrest is undesirable in healthy cells such as HSPCs. The characteristics of a CDK4/6 inhibitor that dictate its arresting duration are its pharmacokinetic (PK) and enzymatic half-lives. Once initiated, a G1-arrest in vivo will be maintained as long as circulating compound remains at an inhibitory level, and as long as the compound engages the enzyme. […] These observations may explain the severe granulocytopenia seen with PD0332991 in the clinic.

[4] = test system: human renal proximal tubule epithelial cells (Rb-positive); assay: Cellular wash-out experiment, renal proximal tubule epithelial cells; type: cell-based; settings: 300 nM
Procedure: Alternatively, the same experiment was done using normal Renal Proximal Tubule Epithelial Cells (Rb-positive) obtained from American Type Culture Collection (ATCC, Manassas, Va.). Cells were grown in an incubator at 37° C. in a humidified atmosphere of 5% CO2 in Renal Epithelial Cell Basal Media (ATCC) supplemented with Renal Epithelial Cell Growth Kit (ATCC) in 37° C. humidified incubator.
as §1

[5] = test system: MCF7 (breast adenocarcinoma, Rb-positive); assay: Cellular proliferation assay (CellTiter-Glo), MCF7; type: cell-based
Procedure: The MCF7 cells were seeded in Costar (Tewksbury, Mass.) 3903 96 well tissue culture treated white walled/clear bottom plates. A nine point dose response dilution series from 10 uM to 1 nM was performed and cell viability was determined after six days of compound treatment as indicated using the CellTiter-Glo® luminescent cell viability assay (CTG; Promega, Madison, Wis., United States of America) following the manufacturer's recommendations. Plates were read on a BioTek (Winooski, Vt.) Syngergy2 multi-mode plate reader. The Relative Light Units (RLU) were plotted as a result of variable molar concentration and data was analyzed using Graphpad (LaJolla, Calif.) Prism 5 statistical software to determine the EC50 for each compound.
(§2) Cellular proliferation assays were conducted using the following cancer cell lines: MCF7 (breast adenocarcinoma—Rb-positive), ZR-75-1 (breast ductal carcinoma—Rb-positive), H69 (human small cell lung cancer—Rb-negative) cells, or A2058 (human metastatic melanoma cells—Rb-negative). These cells were seeded in Costar (Tewksbury, Mass.) […] 96 well tissue culture treated white walled/clear bottom plates. Cells were treated with the compounds of Table 1 as nine point dose response dilution series from 10 uM to 1 nM. Cells were exposed to compounds and then cell viability was determined after either four (H69) or six (MCF7, ZR75-1, A2058) days as indicated using the CellTiter-Glo® luminescent cell viability assay (CTG; Promega, Madison, Wis., United States of America) following the manufacturer's recommendations. Plates were read on BioTek (Winooski, Vt.) Syngergy2 multi-mode plate reader. The Relative Light Units (RLU) were plotted as a result of variable molar concentration and data was analyzed using Graphpad (LaJolla, Calif.) Prism 5 statistical software to determine the EC50 for each compound.

HSPCs (LKS+) [6] = settings: single oral dose 150 mg/kg, mice; Roberts et al.; cited from earlier work
[7] = Schwartz et al. (2011); cited from earlier work
[8] = test system: ZR-75-1 (breast ductal carcinoma, Rb-positive); assay: Cellular proliferation assay (CellTiter-Glo), ZR-75-1; type: cell-based
Procedure: as §2

CDK4/CyclinD1 = CDK4/CyclinD1 (Homo sapiens (Human), UniProt P11802); assay: CDK4/cyclinD1 kinase assay (Nanosyn, microfluidic Caliper platform); type: biochemical; settings: Table 3; read-out: CDK4/CycD1 IC50
CDK4/CyclinD1, sequence (P11802 whole entry, species assumed): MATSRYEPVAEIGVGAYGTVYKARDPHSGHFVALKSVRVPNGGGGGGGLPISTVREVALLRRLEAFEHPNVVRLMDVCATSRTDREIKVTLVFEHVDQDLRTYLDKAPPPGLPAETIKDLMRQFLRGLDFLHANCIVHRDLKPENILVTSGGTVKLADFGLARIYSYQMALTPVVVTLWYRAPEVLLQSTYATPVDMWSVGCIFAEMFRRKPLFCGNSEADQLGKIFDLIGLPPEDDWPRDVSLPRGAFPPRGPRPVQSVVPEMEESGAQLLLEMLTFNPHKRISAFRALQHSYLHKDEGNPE
CDK4/CyclinD1, sequence (P24385 whole entry partner, species assumed): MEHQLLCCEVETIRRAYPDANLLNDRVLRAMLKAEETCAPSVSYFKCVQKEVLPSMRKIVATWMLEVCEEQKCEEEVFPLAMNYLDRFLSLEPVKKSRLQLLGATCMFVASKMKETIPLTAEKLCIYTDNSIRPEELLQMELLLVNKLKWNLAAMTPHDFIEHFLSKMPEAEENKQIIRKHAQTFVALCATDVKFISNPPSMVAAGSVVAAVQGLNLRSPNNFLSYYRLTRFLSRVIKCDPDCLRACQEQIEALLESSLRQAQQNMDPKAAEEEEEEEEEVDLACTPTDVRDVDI
Procedure: Selected compounds disclosed herein were tested in CDK4/cyclinD1, CDK2/CycA and CDK2/cyclinE kinase assays by Nanosyn (Santa Clara, Calif.) to determine their inhibitory effect on these CDKs. The assays were performed using microfluidic kinase detection technology (Caliper Assay Platform). The compounds were tested in 12-point dose-response format in singlicate at Km for ATP. Phosphoacceptor substrate peptide concentration used was 1 μM for all assays and Staurosporine was used as the reference compound for all assays. Specifics of each assay are as described below:
CDK4/CyclinD1: Enzyme concentration: 1 nM; ATP concentration: 200 μM; Incubation time: 10 hr.

HSPCs (LKS+) [9] = assay: Bone marrow HSPC proliferation by EdU incorporation and flow cytometry; type: in vivo; settings: 150 mg/kg oral gavage, mice
Procedure: . JCNI 2012; 104(6):476-487 (FIG. 2A). […].
Mice were then sacrificed at the indicated times (0, 12, 24, 36, or 48 hours following compound administration), and bone marrow was harvested (n=3 mice per time point), as previously described (Johnson et al. J. Clin. Invest. (2010) 120(7), 2528-2536). Four hours before the bone marrow was harvested, mice were treated with 100 μg of EdU by intraperitoneal injection (Invitrogen). Bone marrow mononuclear cells were harvested and immunophenotyped using previously described methods and percent EdU positive cells were then determined (Johnson et al. J. Clin. Invest. (2010) 120(7), 2528-2536). In brief, HSPCs were identified by expression of lineage markers (Lin−), Sca1 (S+), and c-Kit (K+).
Four hours before animals were sacrificed and the bone marrow was harvested, mice were treated with 100 μg of EdU by intraperitoneal injection. Three mice per group were sacrificed at 12 hours and the remaining three animals per group were sacrificed at 24 hours. Results are shown in FIG. 5A as the ratio of EdU positive cells for treated animals at 12 or 24 hour time points compared to control.
Further experiments were completed with Compound T examining dose response and longer periods of compound treatment. […] […].
Both compounds were administered at 150 mg/kg by oral gavage. One hour prior to harvesting bone marrow, EdU was IP injected to label cycling cells. Bone marrow was harvested at 12, 24, 36, and 48 hours after compound treatment and the percentage of EdU positive HSPC cells was determined at each time point.

[10] = test system: MMTV-c-neu (Rb-positive) tumors; assay: MMTV-c-neu HER2-driven (Rb-positive) luminal breast cancer mouse model; type: in vivo, mice
Source text: A HER2-driven model (Rb-positive) of breast cancer (Muller W J, Sinn E, Pattengale P K, Wallace R, Leder P. Single-step induction of mammary adenocarcinoma in transgenic mice bearing the activated c-neu oncogene. Cell 1988; 54: 105-15), that expresses c-neu (the mouse ortholog of human HER2) driven by the MMTV promoter was used in the following example. This model was chosen because previous studies in murine (Yu Q, Geng Y, Sicinski P. Specific protection against breast cancers by cyclin D1 ablation. Nature 2001; 411: 1017-21; Landis M W, Pawlyk B S, Li T, Sicinski P, Hinds P W. Cyclin D1-dependent kinase activity in murine development and mammary tumorigenesis. Cancer Cell 2006; 9: 13-22; Reddy H K, Mettus R V, Rane S G, Grana X, Litvin J, Reddy E P. Cyclin-dependent kinase 4 expression is essential for neu-induced breast tumorigenesis. Cancer Res 2005; 65: 10174-8; Yu Q, Sicinska E, Geng Y, Ahnstrom M, Zagozdzon A, Kong Y, et al. Requirement for CDK4 kinase function in breast cancer. Cancer Cell 2006; 9: 23-32.) and human HER2-positive breast cancer (An H X, Beckmann M W, Reifenberger G, Bender H G, Niederacher D. Gene amplification and overexpression of CDK4 in sporadic breast carcinomas is associated with high tumor cell proliferation. Am J Pathol 1999; 154: 113-8; Samady L, Dennis J, Budhram-Mahadeo V, Latchman DS. Activation of CDK4 gene expression in human breast cancer cells by the Brn-3b POU family transcription factor. Cancer Biol Ther 2004; 3: 317-23; Takano Y, Takenaka H, Kato Y, Masuda M, Mikami T, Saegusa M, et al. Cyclin D1 overexpression in invasive breast cancers: correlation with cyclin-dependent kinase 4 and oestrogen receptor overexpression, and lack of correlation with mitotic activity.
MMTV-neu mice were generated and observed post-lactation, with tumors observed with a median latency of approximately 25 weeks. Mice were enrolled in therapy studies when tumors reached a standard size (50-60 mm3) that permitted easy serial assessment. […] Tumor volumes were calculated by the formula, Volume=[(width)^2×length]/2. Tumor-bearing mice were euthanized at the indicated times due to predefined morbidity, tumor ulceration, or a tumor size of more than 1.5 cm in diameter.
Tumors were serially assessed weekly using caliper measurements. Therapeutic intervention began once tumors reached 40-64 mm^3. Tumor volume was calculated using the formula […]. All three compounds were administered orally via medicated diets (100 mg/kg/d). Medicated diets were administered for 28 consecutive days and then stopped. RECIST criteria were used to assess objective response rates.

CDK6/CycD3 = CDK6/CycD3 (Homo sapiens (Human), UniProt Q00534); assay: CDK6/CycD3 kinase assay; type: biochemical
CDK6/CycD3, sequence (Q00534 whole entry, species assumed): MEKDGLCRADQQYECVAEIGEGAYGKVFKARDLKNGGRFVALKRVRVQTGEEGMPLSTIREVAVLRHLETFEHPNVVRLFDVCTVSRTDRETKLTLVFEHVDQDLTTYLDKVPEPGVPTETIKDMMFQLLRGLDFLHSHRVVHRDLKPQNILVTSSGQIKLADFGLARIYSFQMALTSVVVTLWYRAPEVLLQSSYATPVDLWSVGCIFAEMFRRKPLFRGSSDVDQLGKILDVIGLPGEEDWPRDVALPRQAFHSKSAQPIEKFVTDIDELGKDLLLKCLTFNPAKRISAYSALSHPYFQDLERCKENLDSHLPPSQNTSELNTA
CDK6/CycD3, sequence (P30281 whole entry partner, species assumed): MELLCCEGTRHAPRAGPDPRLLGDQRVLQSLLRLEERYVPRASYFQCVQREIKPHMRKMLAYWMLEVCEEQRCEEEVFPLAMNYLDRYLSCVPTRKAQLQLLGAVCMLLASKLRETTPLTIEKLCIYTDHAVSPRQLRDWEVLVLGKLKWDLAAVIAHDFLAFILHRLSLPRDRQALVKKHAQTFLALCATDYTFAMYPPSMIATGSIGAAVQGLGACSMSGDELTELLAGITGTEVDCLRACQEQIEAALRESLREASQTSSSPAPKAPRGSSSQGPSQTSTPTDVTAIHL

[11] = Mouse pharmacokinetics (oral gavage / intravenous); type: in vivo, mice; settings: plasma, 30 mg/kg, read-out: F (oral bioavailability)
Procedure: Blood samples were taken at 0, 0.25, 0.5, 1.0, 2.0, 4.0, and 8.0 hours post dosing and the plasma concentrations were determined by HPLC.

Row | SMILES | duration of cell cycle arrest after compound is removed from the cell culture media [1] | duration of sustained reduction in myeloid progenitor cell EdU incorporation (FIG. 2) [2] | time post oral dosing at which myeloid progenitor cells return to baseline cell division (FIG. 2) [2] [h] | duration of cell cycle arrest of HSPC in humans [3] | return to baseline levels of cell division after wash out compared to compounds T, Q, GG, or U [4] | inhibition of cellular proliferation of MCF-7 cells (FIGS. 21-24) [5] | duration of sustained reduction in HSPC EdU incorporation (FIG. 2) (HSPCs (LKS+) [6]) | time post oral dosing at which HSPC return to baseline cell division (FIG. 2) (HSPCs (LKS+) [6]) [h] | PK half-life in humans [7] [h] | inhibition of cellular proliferation of ZR75-1 cells (FIGS. 25-28) [8] | IC50 (CDK4/CyclinD1) [nM] | EdU incorporation into HSPCs at 12 and 24 hours (FIG. 5A) (HSPCs (LKS+) [9]) | tumor volume during a 28 day course of therapy ([10]; 100 mg/kg/d in chow) | objective response rate ([10]; 100 mg/kg/day medicated diet, 28 days, RECIST criteria) [%] | IC50 (CDK6/CycD3) [nM] | bioavailability [11] [%]
1 | CC(=O)c1c(C)c2cnc(Nc3ccc(N4CCNCC4)cn3)nc2n(C2CCCC2)c1=O [PD0332991, 6-acetyl-8-cyclopentyl-5-methyl-2-(5-piperazin-1-yl-pyridin-2-ylammino)-8H-pyrido-[2,3-d]-pyrimidin-7-one] | more than forty hours | greater than 36 hours | 48 | approximately one week | took significantly longer to return to baseline levels of cell division | significant inhibition of cellular proliferation | greater than 36 hours | 48 | 27 | significant inhibition of cellular proliferation | – | – | – | – | – | –
2 | CC(C)N1CCN(c2ccc(Nc3ncc4cc5n(c4n3)C3(CCCCC3)CNC5=O)nc2)CC1 [GG] | – | – | – | – | – | significant inhibition of cellular proliferation | – | – | – | significant inhibition of cellular proliferation | 0.7 to 1 | reduction in EdU incorporation at 12 hours which was starting to return to normal at 24 hours | marked decrease in tumor volume | 85 | 5 to 6 | 52
